In a melting point compilation (Tetko et al.; mined from patent text by program, amines drawn as free bases though some values may be those of a salt):

Row | Structure (SMILES) | melting point
1 | N#CC1CCC(c2ccc(N)cc2)CC1 (stereo unspecified) | 132 to 140 °C
2 | CC(C)C[N+]([O-])=Cc1ccccc1 | 73 to 75 °C
3 | O=C(O)Cc1ccc(Oc2ccc([N+](=O)[O-])cc2)cc1 | 132 to 136 °C
4 | CSc1nc(=O)cc(N)n1-c1ccc(Br)cc1 | 138 to 140 °C
5 | COC(=O)NC=Cc1ccc(OCC(O)CNC(C)CC#N)cc1 (stereo unspecified) | 122 to 123 °C
6 | CCOc1cc2ncc(C#N)c(Nc3cccc(F)c3)c2cc1OCC | 192 to 195 °C
7 | CC(C)Cn1c(=O)n(C)c(=O)c2c(Sc3ccc([N+](=O)[O-])cn3)c(Cc3cccc4ccccc34)sc21 | 200 to 201 °C
8 | Cc1cc(-c2cc(COS(C)(=O)=O)c(=O)n(Cc3ccccc3Cl)n2)ccc1F | 142 to 143 °C
9 | O=c1c2c(Cc3ccc([N+](=O)[O-])cc3)n[nH]c2c2cccnc2n1-c1ccccc1 | 254 to 255 °C
10 | N#Cc1ncc(Cl)nc1C#N | 89 to 90 °C
11 | COc1ccc(-c2cc(-c3ccccc3)[nH]c2C(=O)NCc2ccc(C(=O)Nc3ccccc3S)cc2)cc1 | 134 to 135 °C
12 | O=C(O)CCC(=O)Nc1cccc2ccccc12 | 167 to 169 °C
13 | CC12CCC3c4ccc(O)cc4C(=O)C(Sc4ccc(O)cc4)C3C1CCC2O (stereo unspecified) | 120 to 124 °C
14 | Cc1nc2ccc(CCc3ccccc3)cn2c1CC#N | 139 to 141 °C
15 | COc1cccc(C(O)(CC2CCNCC2)c2cccc(OC)c2)c1 | 111 to 113 °C
16 | COc1c(NC(=O)COc2ccccc2)c(C(N)=O)c(OC)c(NC(=O)COc2ccccc2)c1C(N)=O | 272 to 274 °C
17 | CCOC(=O)c1ncoc1-c1cc(Cl)nc(Cl)c1 | 108 to 109 °C
18 | CC(=O)N1CCN(c2ccc(Nc3nccc(-c4sc(N)nc4C)n3)cc2)CC1 | 267 to 269 °C
19 | N#Cc1ccc(CN(O)Cc2ccc(C#N)cc2)cc1 | 172 to 175 °C
20 | CN(C(=O)c1ccc(Cn2ncc3ccccc32)cc1)C1CCNCC1 | 146 to 148 °C
21 | CCCc1ccc(-c2ccc(-c3ccc(OC)cc3)nn2)cc1 | 128 to 130 °C
22 | Cc1c(F)c(Cl)cc2c1c(=O)c(C(=O)O)cn2C1CC1 | 258 to 260 °C
23 | N#Cc1nn(-c2c(Cl)cc(C(F)(F)F)cc2Cl)c(N)c1S(=O)(=O)c1ccc(Cl)cc1 | 90 to 95 °C
24 | Cc1ccc(S(=O)(=O)N2CCCC2c2ccc(C)cc2C)cc1 (racemic) | 130 °C

Row | Structure (SMILES) | melting point
25 | CC(CSSc1nc2ccccc2s1)SSc1nc2ccccc2s1 (stereo unspecified) | 63 to 65 °C
26 | c1ccnc2ccccc2c2ccccc2cc1 | 165 to 167 °C
27 | Cc1coc(C)c1-c1nc2ccc(C(=O)c3ccccc3)cc2[nH]1 | 203 to 208 °C
28 | CCOC(=O)c1cc(Cl)c(S(C)(=O)=O)c(-c2cc(C)no2)c1C | 126 to 129 °C
29 | COc1cc2c(Nc3ccc(C)c(OC(C)=O)c3)ncnc2cc1OCc1ccncc1 | 201 to 202 °C
30 | CC1OC(n2cc(F)c(N)nc2=O)C(O)C1OC(=O)c1ccccc1 (stereo unspecified) | 127 to 129 °C
31 | CCc1c(Sc2cc(C)cc(C)c2)n(CC2CC=CC2)c(=O)[nH]c1=O | 128 to 130 °C
32 | CCOc1nc(O)cc(OC)n1 | 146 to 148 °C
33 | COC(=O)n1cc2c(c1)C(OC(C)=O)N=C(c1ccccc1Cl)c1cc(Cl)ccc1-2 (stereo unspecified) | 175 to 177 °C
34 | OCCN=Cc1ccc(Br)cc1 | 79 to 81 °C
35 | COC(=O)c1cc(-c2nc(CCl)c(C)o2)ccc1OS(C)(=O)=O | 160 to 161 °C
36 | COc1cc(OC)c(CN2CCc3cc(O)c(OC)cc3C2)c(OC)c1 | 150 to 151 °C
37 | CC[C@H](C)[C@H](OCc1ccccc1)[C@@H]1[C@H]([N+](=O)[O-])[C@H](c2ccccc2)N[C@]1(C)C(=O)NCC(=O)O | 89 to 90 °C
38 | CS(=O)(=O)c1ccc(-n2nc(C(F)(F)F)cc2-c2ccc(-c3ccsc3)cc2)cc1 | 154 to 155 °C
39 | CC(C)(C)OC(=O)N1CCN(c2ccc(NC(=O)Nc3cc(Cl)ccc3N)cc2)CC1 | 187 to 189 °C
40 | CS(=O)(=O)c1ccc(-n2cc(C(F)(F)F)nc2-c2ccc(-c3cccs3)cc2)cc1 | 95 to 97 °C
41 | CC(O)c1ccc(CCNS(=O)(=O)c2ccc(Br)cc2)cc1 (stereo unspecified) | 125 to 127 °C
42 | CCOC(=O)C(c1ccc(CN2CCOCC2)cn1)c1cc(C#N)ccc1[N+](=O)[O-] (stereo unspecified) | 83 to 84 °C
43 | COc1ccc(Cl)c(C(=O)NCCc2ccc(S(=O)(=O)NC(=O)c3ccc(C(=O)NCCO)nc3)cc2)c1 | 135 to 137 °C
44 | COc1cc2c(cc1C)CCN=C2CCc1ccc(Cl)cc1 | 122 to 124 °C
45 | CC(O)c1ccc(Cl)c(Cl)c1Cl (stereo unspecified) | 87 to 89 °C
46 | O=C(c1ccccc1)N1CC2C(C1)C2N(C(=O)c1ccccc1)c1ncc2cc(-c3ccccc3Cl)c(=O)n(C3CC3)c2n1 (stereo unspecified) | 124 to 130 °C
47 | CC(=O)NC1C2CC(=O)CC1C(N)=C(O)C2=O (stereo unspecified) | > 280 °C
48 | CCOCCOc1c(C2CCN(CCCCNC(=O)c3ccc(-c4ccc(C(F)(F)F)cc4)cc3)CC2)ccc2c1CCCC2 | 190 °C

Row | Structure (SMILES) | melting point
49 | CS(=O)(=O)c1ccc(C(CC2CCOCC2)c2ccc(-c3ccccn3)[nH]2)cn1 (stereo unspecified) | 89 to 90 °C
50 | O=c1[nH]c2ccc(CCN3CCN(c4cccc5c4CCCC5)CC3)cc2o1 | 200 °C
51 | CCOC(=O)c1cc2c(nc(C)n2C)c2c1CCC(OC)(c1ccccc1C)O2 (stereo unspecified) | 198 °C
52 | CC(=O)NC(CC=Cc1ccccc1)(COC(C)=O)COC(C)=O | 88 to 90 °C
53 | CC(C)(O)CC1CN=C(c2cc3cc(Oc4ccc(S(C)(=O)=O)cn4)cc(OC4CCOCC4)c3[nH]2)S1 (stereo unspecified) | 129 to 130 °C
54 | CCN(CC)CCn1c(=O)c2cnc3c(cnn3CC)c2n2nc(C)cc12 | 90 to 92 °C
55 | Cn1cnc2nc(-c3ccc(Cl)cc3)nn2c1=S | 283 to 285 °C
56 | CCCOc1ccc(S(=O)(=O)N2CCN(C(C)=O)CC2)cc1-c1nc2cc(N)c([N+](=O)[O-])cc2c(=O)[nH]1 | 249 to 251 °C
57 | CCCN(C1=C(O)CC(C2CCCC2)(C2CCCC2)OC1=O)c1cccc(NS(=O)(=O)c2cccs2)c1 | 92 to 95 °C
58 | CC(Cn1cc[nH]c1=NC#N)c1ccc(OC(F)F)c(OC2CCOC2)c1 (stereo unspecified) | 67.8 °C
59 | CS(=O)(=O)c1ccc(-c2cnn(Cc3ccccn3)c(=O)c2-c2ccc(F)cc2)cc1 | 182 to 184 °C
60 | O=[N+]([O-])C=Cc1cnc2c(OCc3ccccc3)cccn12 | 204 °C
61 | CC(=O)OC1CCC2(C)C(=CCC3C2CCC2(C)C(n4ccnc4)=C(C=O)CC32)C1 (stereo unspecified) | 218 to 220 °C
62 | CCc1c(C)n(C)c2ccc(NC(=O)Nc3ccccn3)cc12 | 120 to 123 °C
63 | O=P(O)(O)C(O)(CCC1CCCCN1)P(=O)(O)O (stereo unspecified) | 193 to 195 °C
64 | O=C1c2ccccc2CCn2cccc21 | 54 to 55 °C
65 | Cc1nc(N)c(C#N)c(N2CCc3ccccc3CC2)n1 | > 200 °C
66 | CCCN1CCCC2Cc3nc(NC(C)=O)sc3CC21 (stereo unspecified) | > 200 °C
67 | CCN(CC(C)(C)C)c1nc2c(cc1CN(Cc1cc(C(F)(F)F)cc(C(F)(F)F)c1)c1nnn(C)n1)c(C)nn2C | 72 to 73 °C
68 | O=C1Nc2ccccc2Nc2ccccc21 | 121 to 123 °C
69 | O=C(Cc1noc2ccccc12)N[C@H]1CC[C@H](CCN2CCN(c3nccc4c3OCC4)CC2)CC1 | 211 °C
70 | CC(C)CCN1C(=O)C2(COc3cc4c(cc32)OCCO4)c2ccccc21 (stereo unspecified) | 134 to 137 °C
71 | CC1CC(=O)NN=C1c1ccc2c(c1)N(C)C(=O)CO2 (stereo unspecified) | 215 to 218 °C
72 | Cc1cc(Cn2cc(C3c4ccccc4C=Cc4ccccc43)c(=S)[nH]c2=O)cc(C(=O)O)c1 | > 240 °C

Row | Structure (SMILES) | melting point
73 | Cn1cc(-c2cc(-c3cnc4[nH]ccc4c3)ccn2)n(-c2ccc(N3CCNCC3)c(C(F)(F)F)c2)c1=O | 163 °C
74 | COC(=O)C(C)(C)CCCOc1cc(C)c(N2C(=O)c3ccccc3C2=O)cc1C | 109 to 111 °C
75 | CC(C)COC(=O)Nc1cccc(-c2ccnc3c(Br)cnn23)c1 | 90 to 92 °C
76 | N#CCCNC(=O)C1=CC(CF)(CF)Oc2ccc(C(F)(F)F)cc21 | 129 to 131 °C
77 | COc1ccc(/C=C/C(=O)c2ccccc2C(=O)O)cc1-c1cccs1 | 79 to 81 °C
78 | COc1cc(C(C#N)O[Si](C)(C)C(C)(C)C)cc(OC)c1OC (stereo unspecified) | 43 °C
79 | Cc1cc(OCc2cccc(C(=O)O)c2)c([N+](=O)[O-])cc1S(=O)(=O)N(C)C | 220 to 221 °C
80 | Cc1c(Cl)c(=O)n2c3c(cc(C(O)(C(F)(F)F)C(F)(F)F)cc13)CCC2 | 266 to 268 °C
81 | N#Cc1ccc(Oc2ccc(CC(=O)O)cc2)cc1 | 126 to 128 °C
82 | COc1cc2ncnc(N3CCCc4ccccc43)c2cc1OC | 130 to 131 °C
83 | COc1cc(C(O)CN2CCC(O)(c3ccccc3)CC2)on1 (stereo unspecified) | 166 to 168 °C
84 | ON=C1CCC2(CC1)OC(c1ccccc1)c1ccccc12 (stereo unspecified) | 172 to 175 °C
85 | O[C@@H]1CNCC[C@H]1Sc1ccccc1 (relative stereo) | 135 to 136 °C
86 | Nc1ncc2cc(-c3c(Cl)cccc3Cl)c(N)nc2n1 | 325 to 332 °C
87 | COc1ccc(NC(C)=O)c(OC)c1-c1ccc(C[C@H](NC(=O)c2c(Cl)cccc2Cl)C(=O)O)cc1 | 244 to 245 °C
88 | COC(=O)C(Cc1ccc(OCCN(C)c2nc3ccccc3o2)cc1)Oc1ccc(Cl)cc1 (stereo unspecified) | 88 to 90 °C
89 | O=C(NCCCCCCOC(=O)Oc1ccc([N+](=O)[O-])cc1)OC1CCN(C(=O)OCc2ccccc2)CC1 | 78 to 80 °C
90 | CCN(C)c1cc(Br)cc(S(=O)(=O)c2ccc(N)cc2)c1 | 162 to 164 °C
91 | CC(C)(C)C(NC(=O)c1ccc(Cl)cc1)Nc1c(Nc2cccnc2F)c(=O)c1=O (stereo unspecified) | 231 to 234 °C
92 | O=c1cc(-c2ccccc2)n(-c2ccccc2)c(-c2ccccc2)c1C(F)(F)F | 222 to 225 °C
93 | CNC(=O)ON=C1SC(C)C(=O)NC1(C)C (stereo unspecified) | 190 to 191 °C
94 | CC(=O)NCc1nc2c(N)nc(C)c(C)c2n1CC(C)C | 162 to 164 °C
95 | COc1ccc(C(=O)c2cc(-c3ccc(Cl)cc3)c(N3CCOCC3)s2)cc1 | 120 °C
96 | COc1ccc(CC(=O)Nc2c(C)c(C)c3c(c2C)[C@@H](c2ccc(C)cc2)C(C)(C)O3)cc1 | 166 to 167 °C
